This note sets out measurements from patent publication US20240376153A1, “CNP CYCLIC PEPTIDE, AND MEDICINE, EXTERNAL PREPARATION AND COSMETIC EACH CONTAINING SAID CYCLIC PEPTIDE” (Igisu Co., Ltd., priority 2015, published 2024).

Series [1] deals with nasal cavity, the affected site. Nature of the series: Effect on nose of cyclic peptides in which amino acid was substituted. Conditions: Formulation C = 30 μg/ml, nasal application once/day.
Experimental: The obtained cyclic peptide was combined with purified water at 1, 5, 30, 100, 500 μg/ml and applied to the affected site. Formulations A to E in the tables refers to the cyclic peptide of 1, 5, 30, 100, 500 μg/ml, respectively.
A further series has as its system affected site of skin. Nature of the series: Effect on skin of cyclic peptides in which amino acid was substituted. It is filed as in vivo, human. The method, then: Formulations A to E refers to cyclic peptide concentration of 1, 5, 30, 100, 500 μg/ml, respectively.
Setting [2] is: atopic dermatitis, Formulation B (5 μg/ml in purified water) applied to affected site.
[3] abbreviates: atopic dermatitis, Formulation C (30 μg/ml in purified water) applied to affected site.
The mark [4] stands for this setting: rough skin, Formulation A (1 μg/ml).
Setting [5] is: psoriasis vulgaris, Formulation C (30 μg/ml).
Where [6] appears, read: rough skin, Formulation C (30 μg/ml).

“Also recorded” adds a separate entry of the source. Positions of bridges follow the written chain, without caps; N, C: chain ends. Residues, ends and D or L forms follow the SMILES beside them. No end group written: not given here.

As to `CC[C@H](C)[C@@H]1NC(=O)[C@H](CCCNC(=N)N)NC(=O)[C@H](CC(=O)O)NC(=O)[C@H](CCSC)NC(=O)[C@H](CCCCN)NC(=O)[C@H](CC(C)C)NC(=O)[C@H](C)NC(=O)[C@H](Cc2ccccc2)NC(=O)[C@@H](N)CSSC[C@@H](C(=O)O)NC(=O)CNC(=O)[C@H](CC(C)C)NC(=O)CNC(=O)[C@H](CO)NC(=O)[C@H](CCSC)NC(=O)[C@H](CO)NC(=O)CNC1=O` [SEQ ID NO. 32] (H-CFALKMDRIGSMSGLGC-OH; disulfide 1-17; N-terminus and C-terminus assumed), the “irritation upon nasal application” value in series [1] is “There was no irritation upon nasal application”.

With `CC[C@H](C)[C@@H]1NC(=O)[C@H](CCCNC(=N)N)NC(=O)[C@H](CC(=O)O)NC(=O)[C@H](CC(C)C)NC(=O)[C@H](CCCCN)NC(=O)[C@H](CC(C)C)NC(=O)CNC(=O)[C@H](Cc2ccccc2)NC(=O)[C@@H](N)CSSC[C@@H](C(=O)O)NC(=O)CNC(=O)[C@H](CC(C)C)NC(=O)CNC(=O)[C@H](C)NC(=O)[C@H](CCSC)NC(=O)[C@H](CO)NC(=O)CNC1=O` [SEQ ID NO: 16] (H-CFGLKLDRIGSMAGLGC-OH; disulfide 1-17; N-terminus and C-terminus assumed), the “irritation upon nasal application” value in series [1] is on record as “clear. There was no irritation upon nasal application”.

For “SEQ ID NO: 15: cyclic peptide in which one amino acid has been substituted (CFGLKLDRIGSMTGLGC; disulfide 1-17)”, the “Post-treatment diagnostic skin impression” value in the series with affected site of skin (psoriasis vulgaris, Formulation B (5 μg/ml)) is “remarkably remitted, crusts were eliminated”; in the series on affected site of skin (psoriasis, Formulation B (5 μg/ml)) it was “After 3 min, scales were remitted. 3 min after further; also recorded: reduced”; with affected site of skin (rough skin, wrinkles, Formulation A (1 μg/ml)), “kept moistened, facial erythema and scales were normalized”; with affected site of skin (seborrheic dermatitis, Formulation C (30 μg/ml)) it was “Immediately after application, itches were remitted”.

In the case of “SEQ ID NO: 49: cyclic peptide in which three amino acids have been substituted (CFALKMDRIGSMTGLGC; disulfide 1-17)”, the “Post-treatment diagnostic skin impression” value in the series with affected site of skin (psoriasis vulgaris, Formulation A (1 μg/ml)) is listed as “erythema were remitted”.

As for “SEQ ID NO: 8: cyclic peptide in which one amino acid has been substituted (CFGLKMDRIGSMSGLGC; disulfide 1-17)”, the “Post-treatment diagnostic skin impression” value with affected site of skin (atopic dermatitis, Formulation A (1 μg/ml), two-sided application (right vs left) in the same subject) was “After 1 min, erythema, infiltration, itches were remitted; also recorded: After 2 min, stining feeling was eliminated; also recorded: Immediately after application, itches were eliminated; also recorded: improved, skin texture was improved and moistened”; with affected site of skin (setting [2]), “Immediately after application, itches were eliminated,; also recorded: erythema and scales were remitted”; with affected site of skin (setting [3]), “the day next, erythema was remarkably improved; also recorded: After stopping 3 days of application, the effects lasted”; in the series on affected site of skin (setting [4]), “Immediately after application itches were eliminated; also recorded: After 3 min, skin texture was improved finely, pore”; with affected site of skin (seborrheic dermatitis, acne (comedo), Formulation C (30 μg/ml)), “After 1 min, itches were eliminated; also recorded: opening became inconspicuous, acne (comedo) was reduced”.

On to “SEQ ID NO: 51: cyclic peptide in which three amino acids have been substituted (CFGLKMDRIGTMTGLGC; disulfide 1-17)”, for which the “Post-treatment diagnostic skin impression” value with affected site of skin (setting [3]) was “Immediately after application, itches were eliminated; also recorded: scratch scars were remitted”; in the series on affected site of skin (eczema, Formulation B (5 μg/ml)), “Immediately after application, itches were eliminated; also recorded: After 3 min, erythema and infiltration were remitted”.

For the molecule “SEQ ID NO: 32 (CFALKMDRIGSMSGLGC; disulfide 1-17)”, the “Post-treatment diagnostic skin impression” value with affected site of skin (setting [5]) is “remitted. After 10 min, erythema was further remitted”; with affected site of skin (rough skin, acne (comedo), Formulation C (30 μg/ml)) it was “Immediately after application, itches were eliminated; also recorded: (comedo) was reduced”.

For “SEQ ID NO: 6: cyclic peptide in which one amino acid has been substituted (CFALKLDRIGSMSGLGC; disulfide 1-17)”, the “Post-treatment diagnostic skin impression” value was “Immediately after application, itches were eliminated” with affected site of skin (eczema, large winkles, Formulation B (5 μg/ml)); “texture was improved. After 2 min, wrinkles were shallowed,; also recorded: skin was full and given resilience; also recorded: Immediately after application, itches were eliminated, skin” in the series with affected site of skin (setting [6]).

For the molecule “SEQ ID NO: 14: cyclic peptide in which one amino acid has been substituted (CFGLKLDRIGLMSGLGC; disulfide 1-17)”, the “Post-treatment diagnostic skin impression” value with affected site of skin (setting [2]) was “After 1 min, itches, scales, erythema”; with affected site of skin (setting [5]), “After 3 min, scales, crusts and infiltration were remitted”.

With “SEQ ID NO: 38: cyclic peptide in which two amino acids have been substituted (CFGLKMDRIGSMSGIGC; disulfide 1-17)”, the “Post-treatment diagnostic skin impression” value in the series with affected site of skin (setting [3]) is “After 1 min, itches were eliminated; also recorded: improved. After 3 min, skin was almost normalized and; also recorded: moisturized”; in the series on affected site of skin (contact dermatitis, Formulation C (30 μg/ml)), “After 1 min, itches was remitted; also recorded: After 3 min, swelling lessened, erythema was remitted”; in the series with affected site of skin (setting [5]) it was “After 3 min, scales and infiltration were remitted”; in the series on affected site of skin (rough skin, contact dermatitis, Formulation A (1 μg/ml), two-sided application (right vs left)), “After 2 min, rought desiccation and erythema was remitted,; also recorded: skin texture was improved and moisturized”; in the series with affected site of skin (rough skin, wrinkles, Formulation B (5 μg/ml)) it was “shallowed, skin was full and given resilience”; in the series with affected site of skin (setting [4]), “kept moistened”.

Take “SEQ ID NO: 37: cyclic peptide in which two amino acids have been substituted (CFGLKMDRIGSMTGLGC; disulfide 1-17)”: the “Post-treatment diagnostic skin impression” value is “After 2 min, itches were eliminated” in the series on affected site of skin (atopic dermatitis, Formulation A (1 μg/ml in purified water) applied to affected site); “Immediately after application, itches were remitted,; also recorded: erythema, infiltration and scales were remarkably improved” in the series with affected site of skin (setting [3]).

Take “SEQ ID NO: 35: cyclic peptide in which two amino acids have been substituted (CFALKLDRIGSMSGIGC; disulfide 1-17)”: the “Post-treatment diagnostic skin impression” value with affected site of skin (setting [2]) was “Immediately after application, itches were eliminated,; also recorded: erythema ard scales were remarkably improved”; in the series with affected site of skin (setting [3]), “After 1 min, itches were eliminated; also recorded: After 2 min, scales and erythema were remarkably improved; also recorded: After 3 min, skin was almost normalized and moisturized”.

Take “SEQ ID NO: 17: cyclic peptide in which one amino acid has been substituted (CFGLKLDRIGSMSGAGC; disulfide 1-17)”: the “Post-treatment diagnostic skin impression” value with affected site of skin (setting [3]) was “Immediately after application, itches were eliminated; also recorded: remitted”.

On to “SEQ ID NO: 12: cyclic peptide in which one amino acid has been substituted (CFGLKLDRIGVMSGLGC; disulfide 1-17)”, for which the “Post-treatment diagnostic skin impression” value in the series with affected site of skin (setting [6]) was “improved”.
